# Source: ChEMBL document CHEMBL1667734, “Eutypoids B-E produced by a Penicillium sp. strain from the North Sea” (J Nat Prod, 2011)
# pIC50: −log10 of the molar value. The source made the active and inactive calls. The rule behind the calls is not given here.
# Columns and labels:
# Xanthomonas campestris = assay: Antimicrobial activity against Xanthomonas campestris DSM 2405; format: functional, organism-based
# Ralstonia solanacearum = assay: Antimicrobial activity against Ralstonia solanacearum DSM 9544; format: functional, organism-based
# HepG2 = assay: Cytotoxicity against human HepG2 cells after 24 hrs by celltiter-blue assay; format: functional, cell-based
# Pseudomonas fluorescens = assay: Antimicrobial activity against Pseudomonas fluorescens NCIMB 10586; format: functional, organism-based
# [1] = tested on: Pseudomonas syringae pv. aptata str. DSM 50252; assay: Antimicrobial activity against Pseudomonas syringae pv aptata DSM 50252; format: functional
# Bacillus subtilis = assay: Antimicrobial activity against Bacillus subtilis DSM 347; format: functional, organism-based
# HT-29 = assay: Cytotoxicity against human HT-29 cells after 24 hrs by celltiter-blue assay; format: functional, cell-based
# Escherichia coli = assay: Antimicrobial activity against Escherichia coli K-12 DSM 498; format: functional, organism-based
# Cutibacterium acnes = assay: Antimicrobial activity against Propionibacterium acnes DSM 1897; format: functional, organism-based
# [2] = Cytotoxicity against mouse NIH/3T3 cells after 24 hrs by celltiter-blue assay; format: cell-based; conditions: nih3t3, 24 h
# Nakaseomyces glabratus = assay: Antimicrobial activity against Candida glabrata DSM 6425; format: functional, organism-based
# Pseudomonas aeruginosa = assay: Antimicrobial activity against Pseudomonas aeruginosa DSM 50071; format: functional, organism-based
# [3] = molecular target: Glycogen synthase kinase-3 beta (Homo sapiens, UniProt P49841); assay: Inhibition of GSK3-beta by luminescent assay
# Chain of Glycogen synthase kinase-3 beta (P49841 whole entry): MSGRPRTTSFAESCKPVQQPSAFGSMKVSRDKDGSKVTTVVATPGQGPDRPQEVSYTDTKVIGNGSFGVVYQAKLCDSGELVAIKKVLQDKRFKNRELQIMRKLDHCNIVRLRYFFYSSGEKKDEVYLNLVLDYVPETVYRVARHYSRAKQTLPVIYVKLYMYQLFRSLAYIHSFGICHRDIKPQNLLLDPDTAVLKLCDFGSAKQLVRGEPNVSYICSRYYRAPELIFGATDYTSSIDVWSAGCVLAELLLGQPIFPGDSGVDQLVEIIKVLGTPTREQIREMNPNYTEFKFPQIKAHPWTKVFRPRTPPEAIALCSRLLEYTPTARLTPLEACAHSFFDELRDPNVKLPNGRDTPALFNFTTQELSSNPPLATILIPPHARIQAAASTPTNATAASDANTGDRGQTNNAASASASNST
# Mammaliicoccus lentus = assay: Antimicrobial activity against Staphylococcus lentus DSM 6672; format: functional, organism-based
# [4] = tested on: Staphylococcus epidermidis; assay: Antimicrobial activity against Staphylococcus epidermidis DSM 20044; format: functional, organism-based
# Zymoseptoria tritici = assay: Antimicrobial activity against Septoria tritici; format: functional, organism-based
# Erwinia amylovora = assay: Antimicrobial activity against Erwinia amylovora DSM 50901; format: functional, organism-based
# Parastagonospora nodorum = assay: Antimicrobial activity against Septoria nodorum; format: functional, organism-based
Structure (SMILES),Activity (Xanthomonas campestris),Activity (Ralstonia solanacearum),Activity (HepG2),Activity (Pseudomonas fluorescens),Activity [1],Activity (Bacillus subtilis),Activity (HT-29),Activity (Escherichia coli),Activity (Cutibacterium acnes),Activity [2],Activity (Nakaseomyces glabratus),Activity (Pseudomonas aeruginosa),pIC50 [3],Activity (Mammaliicoccus lentus),Activity [4],Activity (Zymoseptoria tritici),Activity (Erwinia amylovora),Activity (Parastagonospora nodorum)
O=C1OCC(Cc2ccc(O)c(O)c2)=C1c1ccc(O)cc1 [EUTYPOID C],inactive,inactive,inactive,inactive,inactive,inactive,inactive,inactive,inactive,Non-toxic,inactive,inactive,6.17,inactive,inactive,inactive,inactive,
O=C1OCC(Cc2ccc(O)cc2)=C1c1cc(O)cc(O)c1 [EUTYPOID D],inactive,inactive,inactive,inactive,inactive,inactive,inactive,inactive,inactive,Non-toxic,inactive,inactive,5.39,inactive,inactive,inactive,inactive,
O=C1OCC(Cc2ccccc2)=C1c1ccccc1,,,,,,,,,,,,,,,,,,Active
O=C1OCC(Cc2ccc(O)c(O)c2)=C1c1cc(O)cc(O)c1 [EUTYPOID E],inactive,inactive,inactive,inactive,inactive,inactive,inactive,inactive,inactive,Non-toxic,inactive,inactive,5.65,inactive,inactive,inactive,inactive,
O=C1OCC(Cc2ccc(O)cc2)=C1c1ccc(O)cc1 [EUTYPOID B],inactive,inactive,inactive,inactive,inactive,inactive,inactive,inactive,inactive,Non-toxic,inactive,inactive,6.11,inactive,inactive,inactive,inactive,
